According to patent publication US20070197957A1, “Implantable sensors, implantable pumps and anti-scarring drug combinations” (priority 2005, published 2007):

What was measured:
glucocorticoid receptor = biological target: T1, glucocorticoid receptor (Homo sapiens, UniProt P04150); assay: glucocorticoid receptor trafficking (mechanism study); format: cell-based
T1 construct: host or cells: T cells are named only for the GRE reporter experiment in the same sentence

GRE reporter plasmid = assay: transactivation of a transfected GRE reporter plasmid in T cells; format: cell-based
NFAT = NFAT activation, translocation and transactivation; format: cell-based
NFkB and AP1 = NFkB and AP1 activation; format: cell-based
p38 and JNK = p38 and JNK activation; format: cell-based
ERK = ERK activation; format: cell-based
TNF-α = assay: acute in vivo model of inflammation (LPS-induced TNF-α production); conditions: amoxapine alone or reduced dose prednisolone alone
[1] = chronic in vivo arthritis model (adjuvant model), joint swelling; conditions: amoxapine alone or reduced dose prednisolone alone
[2] = test system: carrageenan-induced paw edema; assay: Rat carrageenan-induced paw edema model, paw swelling; format: in vivo; conditions: amoxapine alone at 2.26 mg/kg
Protocol: A dose-range finding study was performed to determine the anti-inflammatory activity of various ratios of methyl prednisolone acetate and amoxapine in a rat carrageenan-induced paw edema model. […] The molar ratio of methyl prednisolone acetate to amoxapine ranged from 1:1 to 1:300, using total doses of methyl prednisolone acetate of 0.01, 0.03 or 0.1 mg/kg.
The test agent (a combination of methyl prednisolone acetate and amoxapine), vehicle control, or reference agents (methyl prednisolone acetate, amoxapine, or Depo-Medrol®) were administered in the left hind foot pad of rats. After 60 minutes, paw edema was induced by injection of 100 μl of 1% carrageenan in the same foot pad. The paw volume was measured with a water displacement plethysmometer immediately prior to test agent injection (T-1h), at the time of carrageenan injection (T0h), and at T6h. Animals were euthanized by carbon dioxide inhalation. Paw tissue samples were collected and flash frozen in liquid nitrogen. Samples were assayed for TNF-α by enzyme-linked immunoassay (ELISA).

[3] = test system: mast cells and eosinophil

T1 sequence (P04150 whole entry, species assumed): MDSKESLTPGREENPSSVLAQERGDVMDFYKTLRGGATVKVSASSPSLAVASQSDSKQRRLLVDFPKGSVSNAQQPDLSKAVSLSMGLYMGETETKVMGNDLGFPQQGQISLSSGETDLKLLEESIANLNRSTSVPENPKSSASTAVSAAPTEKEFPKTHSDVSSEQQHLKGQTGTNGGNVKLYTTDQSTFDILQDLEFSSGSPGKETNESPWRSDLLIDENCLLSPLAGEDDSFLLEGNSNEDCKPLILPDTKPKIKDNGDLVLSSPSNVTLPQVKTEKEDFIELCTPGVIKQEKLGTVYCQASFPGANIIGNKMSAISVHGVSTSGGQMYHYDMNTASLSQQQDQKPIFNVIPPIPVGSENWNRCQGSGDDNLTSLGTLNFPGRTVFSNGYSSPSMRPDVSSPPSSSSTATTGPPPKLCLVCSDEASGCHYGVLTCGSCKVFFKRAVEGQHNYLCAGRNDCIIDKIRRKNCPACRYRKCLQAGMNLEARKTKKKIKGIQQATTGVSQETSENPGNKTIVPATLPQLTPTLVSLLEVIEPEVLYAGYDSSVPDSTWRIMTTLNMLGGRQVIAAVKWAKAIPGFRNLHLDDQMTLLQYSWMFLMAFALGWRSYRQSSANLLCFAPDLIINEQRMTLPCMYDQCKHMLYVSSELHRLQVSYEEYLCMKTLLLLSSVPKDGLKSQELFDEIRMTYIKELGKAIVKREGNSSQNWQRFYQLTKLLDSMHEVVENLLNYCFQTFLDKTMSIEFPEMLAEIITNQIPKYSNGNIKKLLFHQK

Row | Compound | promotion of glucocorticoid receptor trafficking (glucocorticoid receptor) | potentiation of prednisolone's ability to transactivate a GRE reporter plasmid (GRE reporter plasmid) | effect on NFAT activation, translocation and transactivation (NFAT) | effect on NFkB and AP1 activation (NFkB and AP1) | effect on p38 and JNK activation (p38 and JNK) | effect on ERK activation (ERK) | benefit of the single agent (TNF-α) | benefit of the single agent [1] | paw edema compared with vehicle treatment, in words [2] | effect on mast cells and eosinophil activation [3]
1 | Clc1ccc2c(c1)C(N1CCNCC1)=Nc1ccccc1O2 [amoxapine] | does not promote | does not potentiate | block | partially inhibits | Inhibition | unaffected | modest or no benefit | modest or no benefit | not significantly different from the vehicle treatment | 
2 | CCOC(=O)N1CCC(=C2c3ccc(Cl)cc3CCc3cccnc32)CC1 [loratadine] |  |  |  |  |  |  |  |  |  | inhibits
